Reference: patent publication US20230157996A1, “SMALL-MOLECULE INHIBITOR TARGETING EB VIRUS NUCLEAR ANTIGEN PROTEIN, PREPARATION METHOD AND USE THEREOF” (priority 2020, published 2023)

Test system: C666-1 cells
Assay: C666-1 cell viability single concentration (50 μM) inhibition rate (Resazurin)
Format: cell-based
Settings: Homo sapiens, C6661, 72 h, 50 μM compound, 72 hours, C666-1 cells; read-out: C666-1 cell viability single concentration (50 μM) inhibition rate, Ratio* (Inh %)
Outline: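 Resazurin fluorescence (560/590 nm, 3 h development) gave the proliferation inhibition rate, normalised to DMSO-treated and cell-free blank wells. Compound was tested at a single 50 μmol/L final concentration on C666-1 cells for 72 h at 37° C, with duplicate wells, after 24 h seeding.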

SMILES	inhibition at 50 µM [%]
CCNC(=S)OC1CN(c2cccc(C(=O)O)c2-n2cccc2)C1 [Example 161, 3-(3-((ethylthiocarbamoyl)oxy)azetidin-1-yl)-2-(1H-pyrrol-1-yl)benzoic acid]	< 10
COC(=O)c1cccc(N2CC(OC(=S)Nc3ccc(Cl)cc3Cl)C2)c1-n1cccc1 [Example 162, Methyl 3-(3-(((2,4-dichlorophenyl)thiocarbamoyl)oxy)azetidin-1-yl)-2-(1H-pyrrol-1-yl)benzoate]	10 to 30
O=C(O)c1cccc(N2CC(OC(=S)Nc3ccc(Cl)cc3Cl)C2)c1-n1cccc1 [Example 163, 3-(3-(((2,4-dichlorophenyl)thiocarbamoyl)oxy)azetidin-1-yl)-2-(1H-pyrrol-1-yl)benzoic acid]	< 10
COC(=O)c1cccc(N2CC(NC(=O)NC3CC3)C2)c1-n1cccc1 [Example 164, Methyl 3-(3-(3-cyclopropylureido)azetidin-1-yl)-2-(1H-pyrrol-1-yl)benzoate]	< 10
COC(=O)c1cccc(N2CC(NC(=O)Nc3ccc(Oc4ccccc4)cc3)C2)c1-n1cccc1 [Example 165, Methyl 3-(3-(3-(4-phenoxyphenyl)ureido)azetidin-1-yl)-2-(H-pyrrol-1-yl)benzoate]	10 to 30
COC(=O)c1cccc(N2CC(NC(=O)Nc3ccc(OC(F)(F)F)cc3)C2)c1-n1cccc1 [Example 166, Methyl 2-(1H-pyrrol-1-yl)-3-(3-(3-(4-(trifluoromethoxy)phenyl)ureido)azetidin-1-yl)benzoate]	> 50
O=C(Nc1ccc(Oc2ccccc2)cc1)NC1CN(c2cccc(C(=O)O)c2-n2cccc2)C1 [Example 167, 3-(3-(3-(4-phenoxyphenyl)ureido)azetidin-1-yl)-2-(1H-pyrrol-1-yl)benzoic acid]	< 10
O=C(Nc1ccc(OC(F)(F)F)cc1)NC1CN(c2cccc(C(=O)O)c2-n2cccc2)C1 [Example 168, 2-(1H-pyrrol-1-yl)-3-(3-(3-(4-(trifluoromethoxy)phenyl)ureido)azetidin-1-yl)benzoic acid]	< 10
O=C(NC1CC1)NC1CN(c2cccc(C(=O)O)c2-n2cccc2)C1 [Example 169, 3-(3-(3-cyclopropylureido)azetidin-1-yl)-2-(1H-pyrrol-1-yl)benzoic acid]	< 10
COC(=O)c1cccc(N2CC(NC(=O)Nc3cc(OC)cc(OC)c3)C2)c1-n1cccc1 [Example 170, Methyl 3-(3-(3-(3,5-dimethoxyphenyl)ureido)azetidin-1-yl)-2-(1H-pyrrol-1-yl)benzoate]	10 to 30
COc1cc(NC(=O)NC2CN(c3cccc(C(=O)O)c3-n3cccc3)C2)cc(OC)c1 [Example 171, 3-(3-(3-(3,5-dimethoxyphenyl)ureido)azetidin-1-yl)-2-(1H-pyrrol-1-yl)benzoic acid]	< 10
CCNC(=S)NC1CN(c2cccc(C(=O)OC)c2-n2cccc2)C1 [Example 172, Methyl 3-(3-(3-ethylthioureido)azetidin-1-yl)-2-(1H-pyrrol-1-yl)benzoate]	10 to 30
CCNC(=S)NC1CN(c2cccc(C(=O)O)c2-n2cccc2)C1 [Example 173, 3-(3-(3-ethylthioureido)azetidin-1-yl)-2-(1H-pyrrol-1-yl)benzoic acid]	< 10
COC(=O)c1cccc(N2CC(NC(=S)Nc3ccc(Cl)cc3)C2)c1-n1cccc1 [Example 174, Methyl 3-(3-(3-(4-chlorophenyl)thioureido)azetidin-1-yl)-2-(1H-pyrrol-1-yl)benzoate]	> 50
O=C(O)c1cccc(N2CC(NC(=S)Nc3ccc(Cl)cc3)C2)c1-n1cccc1 [Example 175, 3-(3-(3-(4-chlorophenyl)thioureido)azetidin-1-yl)-2-(1H-pyrrol-1-yl)benzoic acid]	< 10
COC(=O)c1cccc(N2CC(NS(=O)(=O)c3ccc(C)cc3)C2)c1-n1cccc1 [Example 176, Methyl 3-(3-((4-methylphenyl)sulfonamido)azetidin-1-yl)-2-(1H-pyrrol-1-yl)benzoate]	10 to 30
Cc1ccc(S(=O)(=O)NC2CN(c3cccc(C(=O)O)c3-n3cccc3)C2)cc1 [Example 177, 3-(3-((4-methylphenyl)sulfonamido)azetidin-1-yl)-2-(1H-pyrrol-1-yl)benzoic acid]	< 10
COC(=O)c1cccc(N2CC(NC(=O)c3ccccc3)C2)c1-n1cccc1 [Example 178, Methyl 3-(3-benzamidoazetidin-1-yl)-2-(1H-pyrrol-1-yl)benzoate]	10 to 30
O=C(NC1CN(c2cccc(C(=O)O)c2-n2cccc2)C1)c1ccccc1 [Example 179, 3-(3-benzamidoazetidin-1-yl)-2-(1H-pyrrol-1-yl)benzoic acid]	< 10
COC(=O)c1cccc(N2CC(NC(=O)c3ccccc3[N+](=O)[O-])C2)c1-n1cccc1 [Example 180, Methyl 3-(3-(2-nitrobenzamido)azetidin-1-yl)-2-(1H-pyrrol-1-yl)benzoate]	30 to 50

SMILES	inhibition at 50 µM [%]
O=C(NC1CN(c2cccc(C(=O)O)c2-n2cccc2)C1)c1ccccc1[N+](=O)[O-] [Example 181, 3-(3-(2-nitrobenzamido)azetidin-1-yl)-2-(1H-pyrrol-1-yl)benzoic acid]	< 10
COC(=O)c1cccc(N2CC(NS(=O)(=O)C3CC3)C2)c1-n1cccc1 [Example 182, Methyl 3-(3-(cyclopropylsulfonamido)azetidin-1-yl)-2-(1H-pyrrol-1-yl)benzoate]	10 to 30
O=C(O)c1cccc(N2CC(NS(=O)(=O)C3CC3)C2)c1-n1cccc1 [Example 183, 3-(3-(cyclopropylsulfonamido)azetidin-1-yl)-2-(1H-pyrrol-1-yl)benzoic acid]	< 10
COC(=O)c1cccc(N2CC(N(Cc3ccccc3)S(=O)(=O)c3ccc(C)cc3)C2)c1-n1cccc1 [Example 184, Methyl 3-(3-((N-benzyl-4-methylphenyl)sulfonamido)azetidin-1-yl)-2-(1H-pyrrol-1-yl)benzoate]	< 10
Cc1ccc(S(=O)(=O)N(Cc2ccccc2)C2CN(c3cccc(C(=O)O)c3-n3cccc3)C2)cc1 [Example 185, 3-(3-((N-benzyl-4-methylphenyl)sulfonamido)azetidin-1-yl)-2-(1H-pyrrol-1-yl) benzoic acid]	< 10
O=C(O)c1cccc(-c2cn(-c3ccc(CO)cc3)nn2)c1-c1ccc2cc[nH]c2c1 [Example 186, 3-(1-(4-(hydroxymethyl)phenyl)-1H-1,2,3-triazol-4-yl)-2-(1H-indol-6-yl)benzoic acid]	< 10
COC(=O)c1cccc(N2CC(Oc3ccc(O)cc3)C2)c1-n1cccc1 [Example 187, Methyl 3-(3-(4-hydroxylphenoxy)azetidin-1-yl)-2-(1H-pyrrol-1-yl)benzoate]	< 10
O=C(O)c1cccc(N2CC(Oc3ccc(O)cc3)C2)c1-n1cccc1 [Example 188, 3-(3-(4-hydroxylphenoxy)azetidin-1-yl)-2-(1H-pyrrol-1-yl)benzoic acid]	< 10
COC(=O)c1cccc(N2CC(Sc3ccc(C)cc3)C2)c1-n1cccc1 [Example 190, Methyl 2-(1H-pyrrol-1-yl)-3-(3-(p-tolylthio)azetidin-1-yl)benzoate]	< 10
COC(=O)c1cccc(N2CC([S+]([O-])c3ccc(C)cc3)C2)c1-n1cccc1 (stereo not shown) [Example 191, Methyl 2-(1H-pyrrol-1-yl)-3-(3-(p-tolylsulfinyl)azetidin-1-yl)benzoate]	10 to 30
COC(=O)c1cccc(N2CC(S(=O)(=O)c3ccc(C)cc3)C2)c1-n1cccc1 [Example 192, Methyl 2-(1H-pyrrol-1-yl)-3-(3-(p-tolylsulfonyl)azetidin-1-yl)benzoate]	10 to 30
Cc1ccc([S+]([O-])C2CN(c3cccc(C(=O)O)c3-n3cccc3)C2)cc1 (stereo not shown) [Example 193]	< 10
COC(=O)c1cccc(N2CC(Oc3ccc(Oc4ccc(Cl)cc4)cc3)C2)c1-n1cccc1 [Example 194, Methyl 3-(3-(4-(4-chlorophenoxy)phenoxy)azetidin-1-yl)-2-(1H-pyrrol-1-yl)benzoate]	< 10
O=C(O)c1cccc(N2CC(Oc3ccc(Oc4ccc(Cl)cc4)cc3)C2)c1-n1cccc1 [Example 195, 3-(3-(4-(4-chlorophenoxy)phenoxy)azetidin-1-yl)-2-(1H-pyrrol-1-yl)benzoic acid]	10 to 30
COC(=O)c1cccc(N2CC(Oc3ccc(Oc4cccc(OC)c4)cc3)C2)c1-n1cccc1 [Example 196, Methyl 3-(3-(4-(3-methoxyphenoxy)phenoxy)azetidin-1-yl)-2-(1H-pyrrol-1-yl)benzoate]	< 10
COC(=O)c1cccc(N2CC(Oc3ccc(Oc4ccccc4)c(Cl)c3)C2)c1-n1cccc1 [Example 198, Methyl 3-(3-(3-chloro-4-phenoxyphenoxy)azetidin-1-yl)-2-(1H-pyrrol-1-yl)benzoate]	< 10
O=C(O)c1cccc(N2CC(Oc3ccc(Oc4ccccc4)c(Cl)c3)C2)c1-n1cccc1 [Example 199, 3-(3-(3-chloro-4-phenoxyphenoxy)azetidin-1-yl)-2-(1H-pyrrol-1-yl)benzoic acid]	30 to 50
COC(=O)c1cccc(N2CC(Oc3ccc(Oc4ccccc4)c(F)c3)C2)c1-n1cccc1 [Example 200, Methyl 3-(3-(3-fluoro-4-phenoxyphenoxy)azetidin-1-yl)-2-(1H-pyrrol-1-yl)benzoate]	< 10
O=C(O)c1cccc(N2CC(Oc3ccc(Oc4ccccc4)c(F)c3)C2)c1-n1cccc1 [Example 201, 3-(3-(3-fluoro-4-phenoxyphenoxy)azetidin-1-yl)-2-(1H-pyrrol-1-yl)benzoic acid]	30 to 50
COC(=O)c1cccc(N2CC(Oc3ccc(Oc4ccc(F)cc4)cc3)C2)c1-n1cccc1 [Example 202, Methyl 3-(3-(4-(4-fluorophenoxy)phenoxy)azetidin-1-yl)-2-(1H-pyrrol-1-yl)benzoate]	< 10
